Measurements reported in patent US20180258381A1, “BIO-LAMINA BIOREACTORS AND METHODS OF MAKING AND USING THE SAME” (Oregon State University, priority 2015, published 2018).

Test system: MDH
Assay: MDH activity reactivity assay (methanol SOUR), inhibitor trials
Format: cell-based, M. trichosporium OB3b
Details: salts tested on MMO and MDH activity
Procedure: The procedure for measuring methanol dehydrogenase (MDH) activity by measuring the specific oxygen uptake rate (SOUR) has been tested on M. trichosporium OB3b cultures grown both in batch and in the chemostat. M. trichosporium OB3b cells were harvested using centrifugation. The supernatant was poured off and the cells were re-suspended in fresh media lacking a carbon source. Phosphate buffer solution was added to a sample chamber in which dissolved oxygen (DO) was measure with a DO probe. When the DO of the solution stabilized, the re-suspended cells were added to the sample chamber to measure baseline oxygen uptake by the cells without a carbon food source present. Methanol was then added to test for MDH activity. The difference in the oxygen uptake rates illustrates the MDH activity of the culture.
Metabolic activity test methods have been developed to monitor specific activities in M. trichosporium OB3b cultures. A naphthalene oxidation assay was used to determine if sMMO is being expressed. An ethylene to ethylene oxide reaction assay and a methane oxidation assay was used to quantify MMO activity, and a methanol oxidation assay was used to estimate MDH activity. Concurrent batch metabolic tests can be conducted to investigate methanol inhibition of methane oxidation, cyclopropane to cyclopropanol conversion and concurrent/subsequent cyclopropanol inhibition of MDH activity, the effect of cyclopropanol inhibition on growth yield, and the effects of high oxygen concentration.
The effect of salts NaCl, NH4Cl and CaCl2 on MMO and MDH activity was evaluated using the reactivity assays described above.

| SMILES | selective inhibition of MDH activity versus MMO |
| --- | --- |
| Cl.N [NH4Cl] | None of the salts were effective |
| [Cl-].[Na+] [NaCl] | None of the salts were effective |
